# According to ChEMBL document CHEMBL1212821 (J Med Chem, 2010):
# What was measured:
# [1] = Drug resistant ratio of EC50 for human KBV1 cells overexpressing MDR1 to EC50 for KB3-1 cells; assay type: functional, cell-based
# [2] = Antiproliferative activity against human KB3-1 cells after 72 hrs by Alamar blue assay in presence of zosuquidar; details: KB 3-1, 72 h
# [3] = Antiproliferative activity against human KBV1 cells overexpressing MDR1 after 72 hrs by Alamar blue assay; details: KB-V1, 72 h
# [4] = Antiproliferative activity against human KBV1 cells overexpressing MDR1 after 72 hrs by Alamar blue assay in presence of zosuquidar; details: KB-V1, 72 h
# NCI-H1299 = assay: Antiproliferative activity against human NCI-H1299 cells after 72 hrs by Alamar blue assay
# [5] = Antiproliferative activity against human KB3-1 cells after 72 hrs by Alamar blue assay; details: KB 3-1, 72 h
# K562 = assay: Antiproliferative activity against human K562 cells after 72 hrs by Alamar blue assay
# [6] = Antiproliferative activity against human hTERT-HME1 cells after 72 hrs by Alamar blue assay
# HCT-116 = assay: Antiproliferative activity against human HCT116 cells after 72 hrs by Alamar blue assay
# BXPC-3 = assay: Antiproliferative activity against human BxPC3 cells after 72 hrs by Alamar blue assay
# [7] = biological target: T1, Kinesin-like protein KIF11 (Homo sapiens, UniProt P52732); assay: Inhibition of human kinesin Eg5
# T1 sequence (P52732 whole entry): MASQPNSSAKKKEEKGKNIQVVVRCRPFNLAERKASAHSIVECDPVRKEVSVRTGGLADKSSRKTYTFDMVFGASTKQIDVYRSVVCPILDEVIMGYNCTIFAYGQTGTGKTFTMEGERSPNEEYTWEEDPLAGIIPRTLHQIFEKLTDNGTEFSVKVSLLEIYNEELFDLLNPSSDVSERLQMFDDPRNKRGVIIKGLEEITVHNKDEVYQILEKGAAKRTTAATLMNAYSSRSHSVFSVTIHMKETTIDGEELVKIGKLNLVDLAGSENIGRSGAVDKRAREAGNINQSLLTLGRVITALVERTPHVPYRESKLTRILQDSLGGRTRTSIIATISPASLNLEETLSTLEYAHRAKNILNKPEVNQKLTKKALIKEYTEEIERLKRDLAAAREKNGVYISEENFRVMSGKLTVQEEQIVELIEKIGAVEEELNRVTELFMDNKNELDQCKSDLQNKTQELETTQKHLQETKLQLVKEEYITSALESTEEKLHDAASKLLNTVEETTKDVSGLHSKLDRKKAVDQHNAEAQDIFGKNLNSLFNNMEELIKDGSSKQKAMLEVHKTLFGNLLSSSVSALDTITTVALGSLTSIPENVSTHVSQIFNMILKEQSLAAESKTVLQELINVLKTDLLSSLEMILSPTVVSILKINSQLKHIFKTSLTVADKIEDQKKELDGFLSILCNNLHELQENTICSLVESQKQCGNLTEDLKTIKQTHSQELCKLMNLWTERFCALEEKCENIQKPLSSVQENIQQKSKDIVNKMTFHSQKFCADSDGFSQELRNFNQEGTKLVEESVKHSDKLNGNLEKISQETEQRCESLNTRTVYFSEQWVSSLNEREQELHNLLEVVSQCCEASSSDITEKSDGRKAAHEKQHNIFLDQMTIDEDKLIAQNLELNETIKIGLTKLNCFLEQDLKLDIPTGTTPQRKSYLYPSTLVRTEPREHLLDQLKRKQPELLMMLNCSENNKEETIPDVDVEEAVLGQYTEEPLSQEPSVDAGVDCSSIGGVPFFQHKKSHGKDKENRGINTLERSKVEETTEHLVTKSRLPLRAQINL
SMILES,EC50 (NCI-H1299; nci-h1299),EC50 (K562; k562),EC50 (HCT-116; hct-116),EC50 (BXPC-3; bxpc-3),"EC50 (NCI-H1299; Homo sapiens, NCI-H1299, 72 h)","EC50 (K562; Homo sapiens, K562, 72 h)","EC50 (HCT-116; Homo sapiens, HCT-116, 72 h)","EC50 (BXPC-3; Homo sapiens, BXPC-3, 72 h)",EC50 ([6]; hme1),"EC50 ([6]; Homo sapiens, HME1, 72 h)",also measured
CC1=C(C(=O)c2ccc(F)c(F)c2)C(c2cccc(O)c2)NC(=S)N1C (racemic),1360 nM,1150 nM,387 nM,601 nM,–,–,–,–,247 nM,–,ratio [1]: 2.5; EC50 [2]: 800 nM; EC50 [3]: 2080 nM; EC50 [4]: 671 nM; EC50 [5]: 832 nM
O=C1CCCC2=C1C(c1cccc(O)c1)NC(=S)N2 (racemic),–,–,–,–,4900 nM,4780 nM,1810 nM,2070 nM,–,2440 nM,–
CC1=C(C(=O)c2ccc(F)c(F)c2)C(c2cccc(O)c2)NC(=S)N1C (stereo in doubt; form 1),33000 nM,26600 nM,15200 nM,33700 nM,–,–,–,–,> 100 nM,–,–
CC[C@]1(O)C[C@@H]2CN(CCc3c([nH]c4ccccc34)[C@@](C(=O)OC)(c3cc4c(cc3OC)N(C)[C@H]3[C@@](O)(C(=O)OC)[C@H](OC(C)=O)[C@]5(CC)C=CCN6CC[C@]43[C@@H]65)C2)C1 [VINBLASTINE],–,–,–,–,–,–,–,–,–,–,ratio [1]: 162; EC50 [2]: 8.5 nM; EC50 [3]: 2040 nM; EC50 [4]: 13 nM; EC50 [5]: 12.6 nM
CCOC(=O)C1=C(C)NC(=S)NC1c1cccc(O)c1 (racemic) [MONASTROL],–,–,–,–,> 100 nM,> 100 nM,24200 nM,> 100 nM,–,45100 nM,ratio [1]: 1.2; EC50 [2]: 56500 nM; EC50 [3]: 99100 nM; EC50 [4]: 45400 nM; EC50 [5]: 85100 nM
CCOC(=O)C1=C(C)NC(=S)N[C@@H]1c1cccc(O)c1,–,–,–,–,–,–,–,–,–,–,IC50 [7]: 30000 nM

# More lines, main results first:
EC50 (NCI-H1299; nci-h1299),EC50 (K562; k562),EC50 (HCT-116; hct-116),EC50 (BXPC-3; bxpc-3),"EC50 (NCI-H1299; Homo sapiens, NCI-H1299, 72 h)","EC50 (K562; Homo sapiens, K562, 72 h)","EC50 (HCT-116; Homo sapiens, HCT-116, 72 h)","EC50 (BXPC-3; Homo sapiens, BXPC-3, 72 h)",SMILES,EC50 ([6]; hme1),"EC50 ([6]; Homo sapiens, HME1, 72 h)",also measured
6890 nM,5690 nM,1830 nM,5000 nM,–,–,–,–,CC1=C(C(=O)c2ccccc2)C(c2cccc(O)c2)NC(=S)N1C (stereo in doubt; form 1),1780 nM,–,–
4610 nM,3700 nM,1740 nM,3600 nM,–,–,–,–,CC1=C(C(=O)c2ccccc2)C(c2cccc(O)c2)NC(=S)N1C (stereo in doubt; form 3),1190 nM,–,–
–,–,–,–,2390 nM,2620 nM,951 nM,2160 nM,CC1=C(C(=O)c2ccc(F)cc2)C(c2cccc(O)c2)NC(=S)N1C (stereo unspecified),–,2540 nM,–
18100 nM,11400 nM,6500 nM,14400 nM,–,–,–,–,CC1=C(C(=O)c2ccccc2)C(c2cccc(O)c2)NC(=S)N1C (stereo in doubt; form 2),> 50000 nM,–,–
783 nM,820 nM,327 nM,736 nM,–,–,–,–,CC1=C(C(=O)c2ccc(F)c(F)c2)C(c2cccc(O)c2)NC(=S)N1C (stereo in doubt; form 2),223 nM,–,–
–,–,–,–,2770 nM,2740 nM,1290 nM,2840 nM,CC1=C(C(=O)c2cccc(F)c2)C(c2cccc(O)c2)NC(=S)N1C (stereo unspecified),–,2820 nM,–
